The values that follow come from paper PMC12517324, “Hyperagonism of a Vitamin D Receptor Agonist/Histone Deacetylase Inhibitor Hybrid Molecule” (Journal of Medicinal Chemistry, 2025).

The target in the assay is T1, HDAC6 (Homo sapiens, UniProt Q9UBN7).
T1 sequence (Q9UBN7 1-1215): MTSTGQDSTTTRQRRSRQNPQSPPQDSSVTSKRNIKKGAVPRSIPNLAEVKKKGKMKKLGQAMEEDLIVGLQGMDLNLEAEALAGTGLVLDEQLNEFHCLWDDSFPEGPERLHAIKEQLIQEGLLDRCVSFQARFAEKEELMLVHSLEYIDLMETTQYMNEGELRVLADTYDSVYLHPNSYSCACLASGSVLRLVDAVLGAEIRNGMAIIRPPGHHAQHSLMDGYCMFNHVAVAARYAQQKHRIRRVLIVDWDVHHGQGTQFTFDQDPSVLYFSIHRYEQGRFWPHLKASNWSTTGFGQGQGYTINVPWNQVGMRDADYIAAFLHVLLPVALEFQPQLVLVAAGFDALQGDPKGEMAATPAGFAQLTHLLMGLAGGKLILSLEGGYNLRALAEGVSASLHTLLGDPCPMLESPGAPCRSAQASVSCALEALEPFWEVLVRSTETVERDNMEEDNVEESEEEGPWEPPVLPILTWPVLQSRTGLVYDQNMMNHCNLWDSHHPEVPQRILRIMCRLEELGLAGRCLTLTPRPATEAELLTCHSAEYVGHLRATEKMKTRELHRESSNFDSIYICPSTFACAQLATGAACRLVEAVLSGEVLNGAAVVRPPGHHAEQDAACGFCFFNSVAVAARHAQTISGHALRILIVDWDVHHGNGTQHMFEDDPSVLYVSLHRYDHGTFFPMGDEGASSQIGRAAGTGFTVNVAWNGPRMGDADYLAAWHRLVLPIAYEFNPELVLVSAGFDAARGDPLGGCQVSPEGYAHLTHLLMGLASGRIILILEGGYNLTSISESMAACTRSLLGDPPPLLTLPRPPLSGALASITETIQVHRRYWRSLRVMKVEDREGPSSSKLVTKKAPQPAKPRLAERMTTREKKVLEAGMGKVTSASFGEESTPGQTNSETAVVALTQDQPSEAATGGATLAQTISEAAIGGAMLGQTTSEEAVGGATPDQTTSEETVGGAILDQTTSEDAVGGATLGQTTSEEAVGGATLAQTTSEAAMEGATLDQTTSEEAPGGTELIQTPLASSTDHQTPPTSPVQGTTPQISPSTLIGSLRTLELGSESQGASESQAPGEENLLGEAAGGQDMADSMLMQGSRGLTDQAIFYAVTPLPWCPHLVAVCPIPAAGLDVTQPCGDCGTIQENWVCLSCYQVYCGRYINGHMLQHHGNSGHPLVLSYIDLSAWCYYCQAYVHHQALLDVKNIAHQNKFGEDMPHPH
In words: Inhibition of purified HDAC6, Boc-Lys(Ac)-AMC substrate. Details: purchased Cayman Chemical. To be noted: 1 h 37 °C. The class given is biochemical.

Molecules are shown by their SMILES.

What is called IC50 is the concentration at which inhibition is half-maximal.

The compound `CCC(CC)(c1ccc(OCCCCCC(=O)NO)cc1)c1ccc(OCC(O)C(C)(C)C)c(C)n1` (stereo not shown) [AM-193] returned an IC50 of 3.09 µM.
